These results are taken from ChEMBL document CHEMBL1240402 (2010).

SMILES strings stand for the structures. The source made the active and inactive calls.

Type in all cases: functional
One test concerns Escherichia coli. The test can be described thus: Antimicrobial activity against flo gene positive Escherichia coli.
The subject of test [1] is Clostridium perfringens. The test can be described thus: Antimicrobial activity against Clostridium perfringens LFM1 assessed as susceptibility breakpoint by DANMAP method.
Test [2] has as its system Clostridium perfringens. The test is described as follows: Antimicrobial activity against Clostridium perfringens LFM1 assessed as susceptibility breakpoint by DIN-standardized microdilution method. In general terms: In broth dilution the organism is exposed to a series of concentrations in liquid medium.
For test [3], the system named is Clostridium perfringens. The test is described as follows: Antimicrobial activity against Clostridium perfringens LFM1 assessed as susceptibility breakpoint by EUCAST method.

With `CS(=O)(=O)c1ccc([C@@H](O)[C@@H](CF)NC(=O)C(Cl)Cl)cc1` [FLORFENICOL], the MIC – broadly, the smallest concentration in the dilution series that meets the test's criterion for growth inhibition – in the test with Escherichia coli is more than 32 µg/mL. Further, the outcome with Clostridium perfringens [1] was inactive.
In the case of `CCC[C@@H]1C[C@@H](C(=O)N[C@@H]([C@H]2O[C@H](SC)[C@H](O)[C@@H](O)[C@H]2O)[C@H](C)Cl)N(C)C1`, the outcome in the test with Clostridium perfringens [2] was inactive.
Still for that read-out and setting: in the case of `CC[C@H]1OC(=O)[C@H](C)[C@@H](O[C@H]2C[C@@](C)(OC)[C@@H](O)[C@H](C)O2)[C@H](C)[C@@H](O[C@@H]2O[C@H](C)C[C@H](N(C)C)[C@H]2O)[C@](C)(O)C[C@@H](C)C(=O)[C@H](C)[C@@H](O)[C@]1(C)O` it was “inactive”.
Consider `O=C(N[C@H](CO)[C@H](O)c1ccc([N+](=O)[O-])cc1)C(Cl)Cl`, for which the outcome in the test on Clostridium perfringens [1] was inactive.
Turning to `CC(=O)NC[C@H]1CN(c2ccc(N3CCOCC3)c(F)c2)C(=O)O1` [LINEZOLID], the Activity result in the test on Clostridium perfringens [2], in the test with Clostridium perfringens [3] (record 2) and with Clostridium perfringens [1] was “<=2 mg/L” each time. The outcome in the test with Clostridium perfringens [3] was inactive. In the test with Escherichia coli, this compound came in with an MIC of more than 64 µg/mL.
